Measurements reported in patent US20240360153A1 (Regeneron Pharmaceuticals, Inc., priority 2023, published 2024).
Several values for one entry are separate records, joined by “and”; a condition that tells them apart may be missing. Identical values can stand only once.

What was measured:
[1] = In vitro microsomal metabolic stability, CD-1 mouse liver microsomes; type: in vitro ADME; settings: for CLint scaled at 1 µM / microsomal CLint at 1 µM: CD-1, mouse, mouse liver microsomes, pH 7.2; for half-life at 1 µM: CD-1, pH 7.2, 0.5 mg/ml protein, NADPH; for half-life at 1 µM / Remaining (T = 60 min) / Remaining (T = NCF60 min): Mouse liver microsomes; for Remaining (T = 60 min): with NADPH; for Remaining (T = NCF60 min): without NADPH regenerating system; for Remaining (T = 60 min) / Remaining (T = NCF60 min): 60 min
In short: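 Compounds at 1 μM incubated at 37° C with pooled CD-1 mouse or human liver microsomes (0.5 mg/mL protein) plus NADPH regenerating system in 50 mM potassium phosphate, pH 7.2, 3.3 mM MgCl2; sampled at 0–60 min, 60-min no-NADPH control. Parent loss by LC/MS/MS analyte/IS peak-area ratio, n=1.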

[2] = tested on: S6K1 (Thr389) phosphorylation (mTORC1 activity) in FKBP12 knock-out 293T cells; assay: Inhibition of S6K1 (Thr389) phosphorylation in FKBP12 knock-out 293T cells (ELISA); type: cell-based, human
In short: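 CRISPR-generated FKBP12 knock-out HEK293T cells, alongside wild-type, were treated in duplicate for 2 hours at 37 °C with an 8–11-point dose range (0.001 pM–10 μM). Phospho-S6K1 Thr389 quantified by ELISA as an mTORC1 activity read-out, with DMSO as negative control.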

Row | SMILES | CLint scaled at 1 µM [1] | microsomal CLint at 1 µM [1] | half-life at 1 µM [1] | Remaining (T = 60 min) [1] | Remaining (T = NCF60 min) [1] | S6K1 inhibition achieved ([2]; FKBP12 knock-out 293T cells, concentration not given) | concentration achieving 30% inhibition of S6K1 (Thr389) phosphorylation ([2]; FKBP12 knock-out cells) | concentration achieving ~40% of S6K1 (Thr389) inhibition ([2]; FKBP12 knock-out cells) | inhibition of S6K1 (Thr389) phosphorylation in the absence of FKBP12 (in words) ([2]; FKBP12 knock-out cells) | inhibition of S6K1 phosphorylation ([2]; FKBP12 knock-out cells, 100 nM, 0.1 µM) | inhibition of S6K1 (Thr389) phosphorylation ([2]; FKBP12 knock-out cells, 10 μM (highest tested concentration), 10 µM) | inhibition at 0.1 µM ([2]; Homo sapiens, HEK-293T, FKBP12 knock-out cells, 100 nM) | IC50 ([2]; Homo sapiens, HEK-293T, FKBP12 knock-out 293T cells) | fold less potent compared with RAD001 ([2]; FKBP12 knock-out cells, at similar level of inhibition) | inhibition at 10 µM ([2]; Homo sapiens, HEK-293T, FKBP12 knock-out cells, 10 μM (highest tested concentration)) | selectivity for FKBP12 compared with RAD001 (in words) ([2]; wild-type versus FKBP12 knock-out cells)
1 | CO[C@H]1C[C@@H]2CC[C@@H](C)[C@@](O)(O2)C(=O)C(=O)N2CCCC[C@H]2C(=O)O[C@H]([C@H](C)C[C@@H]2CC[C@@H](OCCO)[C@H](OC)C2)CC(=O)[C@H](C)/C=C(\C)[C@@H](O)[C@@H](OC)C(=O)[C@H](C)C[C@H](C)/C=C/C=C/C=C/1C [RAD001, everolimus, reference compound] | 76.9 mL/min/kg | 19.4 µL/min/mg | 1.19 h | 56% | 126% | about 50% | ~3.0 nM | 447 nM | inhibited the mTORC1 signaling in a dose dependent manner | ~35% | ~80% and ~70% and 42% and 45% and 58% and 73.5% and 62% and ~60% | ~30% | 0.0313 µM |  |  | 
2 | COCCN(c1ccccc1)C1C[C@@H]2CC[C@@H](C)[C@@](O)(O2)C(=O)C(=O)N2CCCC[C@H]2C(=O)OC([C@H](C)CC2CC[C@@H](O)C(OC)C2)CC[C@H](C)/C=C(\C)C(O)C(OC)C(=O)[C@H](C)C[C@H](C)/C=C/C=C/C=C/1C (stereo partly drawn) [Compound 69, (3S,6S,7E,9R,10R,12R,14S,15E,17E,19E,23S,26R,27R,34aS)-9,27-dihydroxy-3-((R)-1-((1S,3R,4R)-4-hydroxy-3-methoxycyclohexyl)propan-2-yl)-10-methoxy-21-((2-methoxyethyl)(phenyl)amino)-6,8,12,14,20,26-hexamethyl-5,6,9,10,12,13,14,21,22,23,24,25,26,27,32,33,34,34a-octadecahydro-3H-23,27-epoxypyrido[2,1-c][1]oxa[4]azacyclohentriacontine-1,11,28,29(4H,31H)-tetraone] | 11.1 mL/min/kg | 2.81 µL/min/mg | 8.2 h | 113% | 99.6% |  |  |  |  |  |  |  |  | about 3000 fold | ~30% | more selective than RAD001
